# Assay results from publication PMC9230590, “Pharmacokinetics and Tissue Distribution of Enavogliflozin in Mice and Rats” (Pharmaceutics, 2022).
# Values joined by “and” are separate entries in the source; they are usually repeats but may differ in a detail not shown here. Equal values may be shown once. Read-outs that look alike come from different tables or passages of the source.
# Tests used:
# [1] = system: SGLT1; set-up: method as in PMID 32183468; details: cited from earlier work
# [2] = system: hepatocytes; set-up: method as in PMID 32932946; details: mouse hepatocytes; cited from earlier work
# [3] = Pharmacokinetics after oral administration in rats; type: in vivo, Sprague Dawley (SD) rats; details: for AUC∞/D / Cmax/D: dose normalized; for Cmax/D: in (ng/mL)/(mg/kg); for AUC(0-t) / AUC(0-inf) / Cmax / half-life / MRT / Tmax / bioavailability: rat, plasma; for bioavailability: po
# Method: Rats were fasted with water ad libitum for at least 12 h before the oral administration of enavogliflozin. Eighteen rats were randomly divided into three groups (n = 6 per each group) and administered the drug dissolved in a mixture of 10% DMSO and 90% saline at doses of 0.3, 1, and 3 mg/kg by oral gavage. Blood samples were collected at 0, 0.083, 0.25, 0.5, 1, 2, 4, 6, 8, and 24 h with the same procedures described above.
# (§1) Concentrations of enavogliflozin in plasma and tissue homogenate samples were analyzed using an Agilent 6430 triple quadrupole liquid chromatography-mass spectrometry (LC–MS/MS) system (Agilent, Wilmington, DE, USA) following a previously published method.
# (§2) The data were expressed as the means ± standard deviation for the groups. Pharmacokinetic parameters, such as the area under the plasma concentration–time curve during the period of observation (AUClast), AUC to infinite time (AUC∞), clearance (CL), and volume of distribution at steady-state (Vd,ss), the terminal half-life (t1/2), and mean residence time (MRT) were calculated using non-compartment analysis with WinNonlin software (version 5.1; Pharsights, Cary, NC, USA). The AUC ratios were calculated by dividing the AUClast of enavogliflozin in the tissue samples by the plasma AUClast values of enavogliflozin [15].
# [4] = system: hepatocytes; set-up: method as in PMID 32932946; details: rat hepatocytes; cited from earlier work
# [5] = Pharmacokinetics after oral administration in mice; type: in vivo, ICR mice; details: for AUC(0-inf) / AUC(0-t) / Cmax / half-life / MRT / Tmax / bioavailability: ICR, mouse, plasma; for bioavailability: po; for AUC∞/D / Cmax/D: dose normalized
# Method: Mice were fasted with water ad libitum for at least 12 h before oral administration with enavogliflozin. Fifty-four mice were randomly divided into nine groups (n = 6 per group, Table 1) and were administered an enavogliflozin solution at doses of 0.3, 1, and 3 mg/kg via oral gavage. The drug was dissolved in a mixture of 10% DMSO and 90% saline. Blood samples were collected at 0, 0.083, 0.25, 0.5, 1, 2, 4, 8, and 24 h with the same procedures described above and provided in Table 1.
# as §1, §2
# [6] = Recovery from urine and feces over 72 h in rats; type: in vivo, Sprague Dawley (SD) rats; details: for Recovery, Feces / Recovery, Urine: parent form
# Method: Three rats received enavogliflozin (1 mg/kg) intravenously and were returned to metabolic cages with food and water ad libitum and urine and feces samples were collected every 24 h for 72 h. Four rats received enavogliflozin (1 mg/kg) by oral gavage and were returned to their metabolic cages to collect urine and feces samples every 24 h for 72 h with the same protocols described above.
# as §1
# Aliquots of plasma or urine (30 µL each) and tissue homogenate (50 µL each) were added to 100 µL of aqueous solution of d4-enavogliflozin (IS, 20 ng/mL), and vigorously mixed with 500 µL MTBE for 15 min. After centrifugation at 16,000× g for 5 min, samples were kept for 1 h, at a temperature of −80 °C to freeze the aqueous layer freeze. The organic upper layer was then transferred to a clean tube and evaporated to dryness under a gentle stream of nitrogen. The dried extract was reconstituted in 150 µL of mobile phase, and a 3 µL aliquot was injected into the LC–MS/MS system. Enavogliflozin was separated on a Synergi Polar RP column (2.0 × 150 mm, 4 µm particle size; Phenomenex, Torrence, CA, USA) using a isocratic mobile phase consisting of water (15%) and methanol (85%) containing 0.1% formic acid at a flow rate of 0.25 mL/min.
# [7] = system: urinary glucose excretion; set-up: method as in PMID 35395697; details: single oral administration, dose range 0.2 to 5.0 mg, healthy male volunteers; cited from earlier work
smiles,measurement,setting,value
"OC[C@H]1O[C@@H](c2cc(Cc3ccc(C4CC4)cc3)c(Cl)c3c2CCO3)[C@H](O)[C@@H](O)[C@@H]1O [enavogliflozin, (2S,3R,4R,5S,6R)-2-(7-chloro-6-(4-cyclopropylbenzyl) -2,3-dihydrobenzofuran-4-yl)-6-(hydroxymethyl)tetrahydro-2H-pyran-3,4,5-triol]",IC50,[1],549 ± 140 nM
same,In vitro hepatic clearance,[2],36.5 mL/min/kg
same,AUC∞/D,[3]; PO 0.3 mg/kg,1757.6 ± 643.4
same,Cmax/D,[3]; PO 0.3 mg/kg,171.2 ± 49.9
same,AUC∞/D,[3]; PO 1 mg/kg,1649.3 ± 483.4
same,Cmax/D,[3]; PO 1 mg/kg,183.0 ± 95.6
same,AUC∞/D,[3]; PO 3 mg/kg,1385.4 ± 361.8
same,Cmax/D,[3]; PO 3 mg/kg,100.2 ± 36.1
same,AUC(0-t),"[3]; Sprague Dawley, PO 0.3 mg/kg",489 ± 192 ng·h/mL
same,AUC(0-t),"[3]; Sprague Dawley, PO 1 mg/kg",1350 ± 565 ng·h/mL
same,AUC(0-inf),"[3]; Sprague-Dawley, PO 0.3 mg/kg",527 ± 193 ng·h/mL
same,Cmax,"[3]; Sprague-Dawley, PO 0.3 mg/kg",51.3 ± 15 ng/mL
same,half-life,"[3]; Sprague-Dawley, PO 0.3 mg/kg",6.3 ± 2.3 h
same,AUC(0-inf),"[3]; Sprague-Dawley, PO 1 mg/kg",1650 ± 483 ng·h/mL
same,Cmax,"[3]; Sprague-Dawley, PO 1 mg/kg",183 ± 95.6 ng/mL
same,half-life,"[3]; Sprague-Dawley, PO 1 mg/kg",6.9 ± 2.1 h
same,AUC(0-inf),"[3]; Sprague-Dawley, PO 3 mg/kg",4160 ± 1090 ng·h/mL
same,AUC(0-t),"[3]; Sprague-Dawley, PO 3 mg/kg",3250 ± 572 ng·h/mL
same,Cmax,"[3]; Sprague-Dawley, PO 3 mg/kg",301 ± 108 ng/mL
same,half-life,"[3]; Sprague-Dawley, PO 3 mg/kg",10.3 ± 7.5 h
same,MRT,"[3]; Sprague-Dawley, PO 0.3 mg/kg",8.5 ± 3.2 h
same,Tmax,"[3]; Sprague-Dawley, PO 0.3 mg/kg",2.5 ± 2.4 h
same,MRT,"[3]; Sprague-Dawley, PO 1 mg/kg",9.9 ± 3.6 h
same,Tmax,"[3]; Sprague-Dawley, PO 1 mg/kg",2.5 ± 2.5 h
same,MRT,"[3]; Sprague-Dawley, PO 3 mg/kg",14.9 ± 10.6 h
same,Tmax,"[3]; Sprague-Dawley, PO 3 mg/kg",2.9 ± 2.1 h
same,bioavailability,"[3]; Sprague-Dawley, 0.3 mg/kg, PO 0.3 mg/kg, AUC∞,PO / AUC∞,IV, read-out: BA (absolute bioavailability)",62.1%
same,bioavailability,"[3]; Sprague-Dawley, 1 mg/kg, PO 1 mg/kg, AUC∞,PO / AUC∞,IV, read-out: BA (absolute bioavailability)",58.9%
same,bioavailability,"[3]; Sprague-Dawley, 3 mg/kg, PO 3 mg/kg, AUC∞,PO / AUC∞,IV, read-out: BA (absolute bioavailability)",56.3%
same,bioavailability,"[3]; Sprague-Dawley, 3 mg/kg, range over doses 0.3, 1 and 3 mg/kg, read-out: Oral bioavailability",56.3 to 62.1%
same,In vitro hepatic clearance,[4],8.3 mL/min/kg
same,AUC(0-inf),[5]; PO 0.3 mg/kg,498 ± 79 ng·h/mL
same,AUC(0-t),[5]; PO 0.3 mg/kg,488 ± 77.9 ng·h/mL
same,Cmax,[5]; PO 0.3 mg/kg,72.1 ± 10.5 ng/mL
same,half-life,[5]; PO 0.3 mg/kg,4.3 ± 0.5 h
same,AUC(0-inf),[5]; PO 1 mg/kg,1370 ± 270 ng·h/mL
same,AUC(0-t),[5]; PO 1 mg/kg,1360 ± 270 ng·h/mL
same,Cmax,[5]; PO 1 mg/kg,216 ± 94.1 ng/mL
same,half-life,[5]; PO 1 mg/kg,3.5 ± 0.2 h
same,AUC(0-inf),[5]; PO 3 mg/kg,4760 ± 543 ng·h/mL
same,AUC(0-t),[5]; PO 3 mg/kg,4740 ± 532 ng·h/mL
same,Cmax,[5]; PO 3 mg/kg,943 ± 231 ng/mL
same,half-life,[5]; PO 3 mg/kg,3.3 ± 0.4 h
same,MRT,[5]; PO 0.3 mg/kg,5.7 ± 0.5 h
same,Tmax,[5]; PO 0.3 mg/kg,1.5 ± 0.5 h
same,MRT,[5]; PO 1 mg/kg,5.7 ± 0.5 h
same,MRT,[5]; PO 3 mg/kg,5.3 ± 0.5 h
same,Tmax,[5]; PO 3 mg/kg,0.9 ± 0.3 h
same,bioavailability,"[5]; 0.3 mg/kg, PO 0.3 mg/kg, AUC∞,PO / AUC∞,IV, read-out: BA (absolute bioavailability)",97.2%
same,bioavailability,"[5]; 1 mg/kg, PO 1 mg/kg, AUC∞,PO / AUC∞,IV, read-out: BA (absolute bioavailability)",84.5%
same,bioavailability,"[5]; 3 mg/kg, PO 3 mg/kg, AUC∞,PO / AUC∞,IV, read-out: BA (absolute bioavailability)",93.7%
same,bioavailability,"[5]; 3 mg/kg, range over doses 0.3, 1 and 3 mg/kg, read-out: Oral bioavailability",84.5 to 97.2%
same,AUC∞/D,[5]; PO 0.3 mg/kg,1658.9 ± 263.5
same,Cmax/D,[5]; PO 0.3 mg/kg,240.5 ± 35.0
same,AUC∞/D,[5]; PO 1 mg/kg,1373.8 ± 269.6
same,Cmax/D,[5]; PO 1 mg/kg,216.1 ± 94.1
same,AUC∞/D,[5]; PO 3 mg/kg,1587.0 ± 181.1
same,Cmax/D,[5]; PO 3 mg/kg,314.3 ± 76.9
same,Recovery in feces relative to urine,[6]; 1 mg/kg IV,about 22.7 fold
same,"Recovery, Feces","[6]; 1 mg/kg IV, 0–24 h",15.2 ± 6.2 % of Dose
same,"Recovery, Feces","[6]; 1 mg/kg IV, 0–72 h, 1 mg/kg",15.9 ± 5.9 % of Dose and 15.9 % of Dose
same,"Recovery, Urine","[6]; 1 mg/kg IV, 0–72 h, 1 mg/kg",0.7 ± 0.2 % of Dose and 0.7 % of Dose
same,"Recovery, Feces","[6]; 1 mg/kg IV, 24–48 h",0.7 ± 0.8 % of Dose
same,"Recovery, Urine","[6]; 1 mg/kg IV, 24–48 h",0.1 ± 0.0 % of Dose
same,"Recovery, Feces","[6]; 1 mg/kg PO, 0–24 h",44.5 ± 11.8 % of Dose
same,"Recovery, Urine","[6]; 1 mg/kg PO, 0–24 h",0.3 ± 0.1 % of Dose
same,"Recovery, Urine","[6]; 1 mg/kg PO, 0–72 h",0.3 ± 0.1 % of Dose
same,"Recovery, Feces","[6]; 1 mg/kg PO, 0–72 h, 1 mg/kg",45.5 % of Dose
same,"Recovery, Feces","[6]; 1 mg/kg PO, 24–48 h",0.9 ± 0.4 % of Dose
same,"Recovery, Feces","[6]; 1 mg/kg PO, 48–72 h",0.2 ± 0.0 % of Dose
same,"Recovery, Urine","[6]; 1 mg/kg PO, 48–72 h",0.3 ± 0.1 % of Dose
same,dose excreted,"[6]; Sprague-Dawley, rat, urine and feces, 1 mg/kg IV, 72 h, read-out: total recovery (feces + urine)",~16.6%
same,urinary glucose excretion,[7],dose-dependent increase
